This note sets out measurements from US20180213779A1, “PESTICIDALLY ACTIVE HETEROCYCLIC DERIVATIVES WITH SULPHUR CONTAINING SUBSTITUENTS” (SYNGENTA PARTICIPATIONS AG, priority 2015, published 2018).

Data set [1] relates to Plutella xylostella (Diamond-Back Moth). Put plainly: Example B3: Plutella xylostella larvicide, feeding/contact activity, preventative (artificial diet, 96-well). Type of data set: in vivo. Particulars: 216 h, application rate of 500 ppm, mortality assessed 9 days after treatment. On the procedure: Example B3: Plutella xylostella (Diamond-Back Moth) larvicide, feeding/contact activity, preventative Artificial diet was dispensed into a 96-well microtiter plate and treated with aqueous test solutions prepared from 10′000 ppm DMSO stock solutions. Eggs were suspended above the treated diet and first instar larvae hatched onto the diet. Mortality was assessed 9 days after treatment.

In data set [2] the test system is Plutella xylostella (Diamond Back Moth). The experiment in a line: Example B11: Activity against Plutella xylostella (artificial diet, 24-well, L2 larvae). Type of data set: in vivo. Particulars: 120 h, application rate of 200 ppm, 5 days after infestation, read-out: effect in at least one of the two categories (mortality or growth inhibition). On the procedure: Example B11: Activity Against Plutella xylostella (Diamond Back Moth)
24-well microtiter plates with artificial diet were treated with aqueous test solutions prepared from 10′000 ppm DMSO stock solutions by pipetting. After drying, the plates were infested with L2 larvae (10 to 15 per well). The samples were assessed for mortality and growth inhibition in comparison to untreated samples 5 days after infestation.

Data set [3] concerns Diabrotica balteata (Corn Root Worm). The experiment in a line: Example B6: Activity against Diabrotica balteata (sprayed maize sprouts). It counts as in vivo. Particulars: 96 h, application rate of 200 ppm, L2 larvae, 4 days after infestation, read-out: effect in at least one of the two categories (mortality or growth inhibition). On the procedure:
Example B6: Activity Against Diabrotica Balteata (Corn Root Worm)
Maize sprouts placed onto an agar layer in 24-well microtiter plates were treated with aqueous test solutions prepared from 10′000 ppm DMSO stock solutions by spraying. After drying, the plates were infested with L2 larvae (6 to 10 per well). The samples were assessed for mortality and growth inhibition in comparison to untreated samples 4 days after infestation.

The subject of data set [4] is Spodoptera littoralis (Egyptian Cotton Leaf Worm). Put plainly: Example B4: Activity against Spodoptera littoralis (sprayed cotton leaf discs). Particulars: foliar, 72 h, application rate of 200 ppm, L1 larvae, 3 days after infestation. Type of data set: in vivo. On the procedure:
Example B4: Activity Against Spodoptera littoralis (Egyptian Cotton Leaf Worm)
Cotton leaf discs were placed on agar in 24-well microtiter plates and sprayed with aqueous test solutions prepared from 10′000 ppm DMSO stock solutions. After drying the leaf discs were infested with five L1 larvae. The samples were assessed for mortality, anti-feedant effect, and growth inhibition in comparison to untreated samples 3 days after infestation. Control of Spodoptera littoralis by a test sample is given when at least one of the categories mortality, anti-feedant effect, and growth inhibition is higher than the untreated sample.

The test system is the same in data set [5]. The experiment in a line: Example B5: Activity against Spodoptera littoralis (systemic, lettuce grown on treated agar). Particulars: 144 h, test rate of 12.5 ppm, 6 days after infestation, uptake by lettuce roots, read-out: effect in at least one of the three categories (mortality, anti-feeding, or growth inhibition). It counts as in vivo. From the text:
Example B5: Activity Against Spodoptera littoralis (Egyptian Cotton Leaf Worm)
Test compounds were applied by pipette from 10′000 ppm DMSO stock solutions into 24-well plates and mixed with agar. Lettuce seeds were placed onto the agar and the multi well plate was closed by another plate which contained also agar. After 7 days the compound was absorbed by the roots and the lettuce grew into the lid plate. The lettuce leaves were then cut off into the lid plate. Spodoptera eggs were pipetted through a plastic stencil onto a humid gel blotting paper and the lid plate was closed with it. The samples were assessed for mortality, anti-feedant effect and growth inhibition in comparison to untreated samples 6 days after infestation.

Data set [6] deals with Euschistus heros (Neotropical Brown Stink Bug). Put plainly: Example B7: Activity against Euschistus heros (sprayed soybean leaves). Type of data set: in vivo. Particulars: 120 h, application rate of 200 ppm, N2 nymphs, 5 days after infestation, read-out: effect in at least one of the two categories (mortality or growth inhibition). On the procedure:
Example B7: Activity Against Euschistus heros (Neotropical Brown Stink Bug)
Soybean leaves on agar in 24-well microtiter plates were sprayed with aqueous test solutions prepared from 10′000 ppm DMSO stock solutions. After drying the leaves were infested with N2 nymphs. The samples were assessed for mortality and growth inhibition in comparison to untreated samples 5 days after infestation.

In data set [7] the test system is Myzus persicae (Green Peach Aphid). The experiment in a line: Example B8: Activity against Myzus persicae (sprayed sunflower leaf discs). Particulars: foliar, 144 h, application rate of 200 ppm, mixed ages, 6 days after infestation. It counts as in vivo. On the procedure: Example B8: Activity Against Myzus persicae (Green Peach Aphid)
Sunflower leaf discs were placed onto agar in a 24-well microtiter plate and sprayed with aqueous test solutions prepared from 10′000 ppm DMSO stock solutions. After drying, the leaf discs were infested with an aphid population of mixed ages. The samples were assessed for mortality 6 days after infestation.

One may read the melting point as the temperature, or range, at which the solid turns liquid. As usually defined, the pest or weed control is how far the test organism was held down. A lower pest or weed control goes with weak suppression. By mortality is commonly meant the share of the test organisms that died. The low end stands for a weak lethal effect, the high end for a strong lethal effect.

Where only a bound is given, the exact number is not on record here.

For `CCSc1ccc(Cl)nc1-c1cc(-c2ccc(C(F)(F)F)nc2)n(C)n1` [Compound P32, 6-chloro-3-ethylsulfanyl-2-[1-methyl-5-[6-(trifluoromethyl)-3-pyridyl]pyrazol-3-yl]pyridine], the melting point lay within 136 to 138 °C.

Take `CCS(=O)(=O)c1ccc(-n2cncn2)nc1-c1cc(-c2ccc(C(F)(F)F)nc2)n(C)n1` [Compound P35, 3-ethylsulfonyl-2-[1-methyl-5-[6-(trifluoromethyl)-3-pyridyl]pyrazol-3-yl]-6-(1,2,4-triazol-1-yl)pyridine]: the melting point lay in the range of 175 to 177 °C.

`CCSc1ccc(Cl)nc1-c1cc(-c2cncc(C(F)(F)F)c2)n(C)n1` [Compound P36] returned a melting point of 125 to 126 °C.

The molecule `CCSc1cccnc1-c1cn(-c2ccc(C(F)(F)F)cc2)nn1` [Compound P16, 3-ethylsulfanyl-2-[1-[4-(trifluoromethyl)phenyl]triazol-4-yl]pyridine] returned a pest or weed control at 500 ppm in data set [1] of at least 70%. Also, the percent effect (mortality or growth inhibition) at 200 ppm in data set [2] was at least 80%.

As for `CCSc1ccc(Cl)nc1-c1cc(-c2cc(C(F)(F)F)ccn2)n(C)n1` [Compound P28], the melting point is 138 to 140 °C.

In data set [1], `CCS(=O)(=O)c1cc(C(F)(F)F)cnc1-c1noc(-c2ccc(C(F)(F)F)cc2)c1C` [Compound P8] had a pest or weed control at 500 ppm of at least 70%.

Take `CCS(=O)(=O)c1cc(C(F)(F)F)cnc1-c1nnc(-c2cc(C(F)(F)F)ccn2)o1` [Compound P5, 2-[3-ethylsulfonyl-5-(trifluoromethyl)-2-pyridyl]-5-[4-(trifluoromethyl)-2-pyridyl]-1,3,4-oxadiazole]: the effect (mortality or growth inhibition) at 200 ppm in data set [3] is at least 80%.

In data set [4], `CCS(=O)(=O)c1cc(C(F)(F)F)cnc1-c1cn(-c2cncc(C(F)(F)F)c2)nn1` [Compound P23] gave a percent control (mortality, anti-feedant effect or growth inhibition) at 200 ppm of at least 80%. For the same molecule, in data set [3], the effect (mortality or growth inhibition) at 200 ppm was at least 80%. The molecule also registered a pest or weed control at 500 ppm in data set [1] of at least 70%. In addition, in data set [5], the percent effect (mortality, anti-feeding or growth inhibition) at 12.5 ppm was at least 80%.

Take `CCS(=O)(=O)c1cc(C(F)(F)F)ccc1-c1nnc(-c2ccc(C(F)(F)F)nc2)o1` [Compound P7]: the pest or weed control at 500 ppm in data set [1] is at least 70%.

`CCS(=O)(=O)c1cccnc1-c1cc(-c2ccc(C(F)(F)F)nc2)n(C)n1` [Compound P34, 3-ethylsulfonyl-2-[1-methyl-5-[6-(trifluoromethyl)-3-pyridyl]pyrazol-3-yl]pyridine] came in with a melting point of 160 to 162 °C.

`CCSc1cc(C(F)(F)F)cnc1-c1cc(-c2ccc(C(F)(F)F)cc2)on1` [Compound P11, 3-(3-ethylsulfanyl-5-(trifluoromethyl)pyridin-2-yl)-5-(4-(trifluoromethyl)phenyl)-isoxazole]: the melting point lay within 145 to 146 °C.

As for `CCS(=O)(=O)c1cccnc1-c1cn(-c2ccc(C(F)(F)F)cc2)nn1` [Compound P17, 3-ethylsulfonyl-2-[1-[4-(trifluoromethyl)phenyl]triazol-4-yl]pyridine], the percent control (mortality, anti-feedant effect or growth inhibition) at 200 ppm in data set [4] was at least 80%. In data set [3], the effect (mortality or growth inhibition) at 200 ppm was at least 80%. Also, the pest or weed control at 500 ppm in data set [1] is at least 70%. The percent effect (mortality or growth inhibition) at 200 ppm in data set [6] and in data set [2] was at least 80% each time.

Turning to `CCS(=O)(=O)c1ccc(-n2cncn2)nc1-c1cc(-c2cc(C(F)(F)F)ccn2)n(C)n1` [Compound P31], the melting point was in the range of 238 to 240 °C.

For the molecule `CCS(=O)(=O)c1cc(C(F)(F)F)cnc1-c1cn(-c2ccc(C(F)(F)F)nc2)nn1` [Compound P22], the percent control (mortality, anti-feedant effect or growth inhibition) at 200 ppm in data set [4] is at least 80%. For the same molecule, in data set [3], the effect (mortality or growth inhibition) at 200 ppm is at least 80%. Besides, the pest or weed control at 500 ppm in data set [1] was at least 70%. The percent effect (mortality or growth inhibition) at 200 ppm in data set [2] was at least 80%.

In turn, `CCS(=O)(=O)c1ccc(-n2cncn2)nc1-c1cc(-c2cncc(C(F)(F)F)c2)n(C)n1` [Compound P39] displayed a melting point of 235 to 237 °C.

`CCS(=O)(=O)c1cccnc1-c1cn(-c2cccc(C(F)(F)F)c2)nn1` [Compound P15]: the percent control (mortality, anti-feedant effect or growth inhibition) at 200 ppm in data set [4] was at least 80%. In addition, the effect (mortality or growth inhibition) at 200 ppm in data set [3] was at least 80%. The same molecule gave a pest or weed control at 500 ppm in data set [1] of at least 70%. Further, in data set [5], the percent effect (mortality, anti-feeding or growth inhibition) at 12.5 ppm is at least 80%. In data set [7], this molecule returned a mortality at 200 ppm of at least 80%. The percent effect (mortality or growth inhibition) at 200 ppm in data set [6] and in data set [2] was at least 80% each time.

As to `CCSc1cccnc1-c1cn(-c2ccc(C(F)(F)F)nc2)nn1` [Compound P24], the effect (mortality or growth inhibition) at 200 ppm in data set [3] is at least 80%. This molecule had a pest or weed control at 500 ppm in data set [1] of at least 70%.

In the case of `CCSc1cccnc1-c1cn(-c2cccc(C(F)(F)F)c2)nn1` [Compound P14], the effect (mortality or growth inhibition) at 200 ppm in data set [3] is at least 80%. For the same molecule, the pest or weed control at 500 ppm in data set [1] is at least 70%. In addition, the mortality at 200 ppm in data set [7] is at least 80%. Besides, the percent effect (mortality or growth inhibition) at 200 ppm in data set [6] and in data set [2] was at least 80% in each case.

Molecule `CCS(=O)(=O)c1ccc(Cl)nc1-c1cc(-c2cncc(C(F)(F)F)c2)n(C)n1` [Compound P37] displayed a melting point of 152 to 153 °C.

In turn, `CCS(=O)(=O)c1ccc(Cl)nc1-c1cc(-c2cc(C(F)(F)F)ccn2)n(C)n1` [Compound P29] returned a melting point of 255 to 257 °C.

Consider `CCS(=O)(=O)c1ccc(Cl)nc1-c1cc(-c2ccc(C(F)(F)F)nc2)n(C)n1` [Compound P33, 6-chloro-3-ethylsulfonyl-2-[1-methyl-5-[6-(trifluoromethyl)-3-pyridyl]pyrazol-3-yl]pyridine], for which the melting point was 198 to 200 °C.

In data set [4], `CCS(=O)(=O)c1cc(C(F)(F)F)cnc1-c1nnc(-c2ccc(C(F)(F)F)cc2)o1` [Compound P3] came in with a percent control (mortality, anti-feedant effect or growth inhibition) at 200 ppm of at least 80%.

With `CCS(=O)(=O)c1cc(C(F)(F)F)cnc1-c1cn(-c2ccc(C(F)(F)F)cc2)nn1` [Compound P2, 3-(ethylsulfonyl)-5-(trifluoromethyl)-2-(1-(4-(trifluoromethyl)phenyl)-1H-1,2,3-triazol-4-yl)pyridine], the melting point was 212 to 213 °C.

With `CCS(=O)(=O)c1cc(-c2ccc(Cl)cc2)cnc1-c1cn(-c2cccc(C(F)(F)F)c2)nn1` [Compound P13, 5-(4-chlorophenyl)-3-ethylsulfonyl-2-[1-[3-(trifluoromethyl)phenyl]triazol-4-yl]pyridine], the percent control (mortality, anti-feedant effect or growth inhibition) at 200 ppm in data set [4] was at least 80%. Further, the effect (mortality or growth inhibition) at 200 ppm in data set [3] is at least 80%. This molecule gave a pest or weed control at 500 ppm in data set [1] of at least 70%. In addition, the percent effect (mortality or growth inhibition) at 200 ppm in data set [2] was at least 80%.

Take `CCSc1cc(C(F)(F)F)cnc1-c1cn(-c2cncc(C(F)(F)F)c2)nn1` [Compound P21]: the effect (mortality or growth inhibition) at 200 ppm in data set [3] is at least 80%. Further, in data set [1], the pest or weed control at 500 ppm is at least 70%.

Consider `CCS(=O)(=O)c1cccnc1-c1cc(-c2cc(C(F)(F)F)ccn2)n(C)n1` [Compound P30], for which the melting point fell in the range of 171 to 173 °C.
